Activity calls are given as the source filed them.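 How the source made its calls: active means signal drop with a fitted AC50 at or under twice the sample's highest valid dose; inconclusive means flat fit with signal down 30 to 70%, or poor fit; inactive means the rest, including signal rising.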
System: A549 viability, CellTiter-Glo ATP luminescence, 72 h
Test: A549 cell cytotoxicity, dose response, cytotoxicity control, luminescence, dry powder, set 9 (AID 743355)
Details: not given
In the case of `COc1cc(C(=O)N2CCN(c3ccc(C(C)=O)cc3)CC2)cc2c1OCO2`, the AC50 is reported as > 52 µM (inactive).

System: not listed separately
Test: as above
Details: A549 viability, CellTiter-Glo ATP luminescence, 72 h; at 12 µM (top of the series)
In the case of `N#Cc1ccc(N2CCN(C(=O)c3ccc4c(c3)OCO4)CC2)cc1`, the normalized CellTiter-Glo signal change (more negative = more cytotoxic) is reported as -5.47% (inactive).

Same assay, conditions: A549 viability, CellTiter-Glo ATP luminescence, 72 h; at 26 µM (top of the series)
In the case of `CC(=O)c1ccc(N2CCN(C(=O)c3ccc(Cl)c(Cl)c3)CC2)cc1`, the normalized CellTiter-Glo signal change (more negative = more cytotoxic) is reported as 5.05% (inactive). For `CC(=O)c1ccc(N2CCN(C(=O)c3cc4c(cc3Cl)OCO4)CC2)cc1`, the normalized CellTiter-Glo signal change (more negative = more cytotoxic) was 2.51% (inactive). In the case of `COc1cc2c(cc1C(=O)N1CCN(c3ccc(C(C)=O)cc3)CC1)OCO2`, the normalized CellTiter-Glo signal change (more negative = more cytotoxic) is reported as -2.21% (inactive). With `CC(=O)c1ccc(N2CCN(C(=O)c3ccc4ocnc4c3)CC2)cc1` the normalized CellTiter-Glo signal change (more negative = more cytotoxic) was 4.94% (inactive). For `CC(=O)c1ccc(N2CCN(C(=O)c3ccc4c(c3)OC(F)(F)O4)CC2)cc1`, the normalized CellTiter-Glo signal change (more negative = more cytotoxic) was -2.42% (inactive). For `CS(=O)(=O)c1ccc(N2CCN(C(=O)c3ccc4c(c3)OCO4)CC2)cc1`, the normalized CellTiter-Glo signal change (more negative = more cytotoxic) was -1.14% (inactive). With `COc1ccc(C(=O)N2CCN(c3ccc(C(C)=O)cc3)CC2)cc1OC` the normalized CellTiter-Glo signal change (more negative = more cytotoxic) was 51.5% (inactive). For `CC(=O)c1ccc(N2CCN(C(=O)c3ccc4c(c3)OC(C)(C)O4)CC2)cc1`, the normalized CellTiter-Glo signal change (more negative = more cytotoxic) was 5.78% (inactive). In the case of `CC(=O)c1ccc(N2CCCN(C(=O)c3ccc4c(c3)OCO4)CC2)cc1`, the normalized CellTiter-Glo signal change (more negative = more cytotoxic) is reported as 9.8% (inactive). With `O=C(c1ccc2c(c1)OCO2)N1CCN(c2ccc(S(=O)(=O)C(F)F)cc2)CC1` the normalized CellTiter-Glo signal change (more negative = more cytotoxic) was 17.7% (inactive). With `CC(=O)c1ccc(N2CCN(S(=O)(=O)c3ccc4c(c3)OCO4)CC2)cc1` the normalized CellTiter-Glo signal change (more negative = more cytotoxic) was -10.1% (inactive). In the case of `CC(=O)c1ccc(N2CCN(C(=O)c3cc4c(cn3)OCO4)CC2)cc1`, the normalized CellTiter-Glo signal change (more negative = more cytotoxic) is reported as -11.9% (inactive). In the case of `CC(=O)c1ccc(N2CCN(C(=O)Nc3ccc4c(c3)OCO4)CC2)cc1`, the normalized CellTiter-Glo signal change (more negative = more cytotoxic) is reported as -14.7% (inactive). With `CC(=O)c1ccc(N2CCN(C(=O)c3cccc4c3OCO4)CC2)cc1` the normalized CellTiter-Glo signal change (more negative = more cytotoxic) was 2.91% (inactive). With `CC(=O)c1ccc(N2CCN(C(=O)c3cc4c(cc3C)OCO4)CC2)cc1` the normalized CellTiter-Glo signal change (more negative = more cytotoxic) was 1.8% (inactive). For `CC(=O)c1ccc(N2CCN(C(=O)c3ccc4c(c3)OCO4)CC2)cc1`, the normalized CellTiter-Glo signal change (more negative = more cytotoxic) was -7.97% (inactive). For `O=C(c1ccc2c(c1)OCO2)N1CCN(c2ccc(OC(F)(F)F)cc2)CC1`, the normalized CellTiter-Glo signal change (more negative = more cytotoxic) was 6.83% (inactive). For `O=C(c1ccc2c(c1)OCO2)N1CCN(c2ccc(S(=O)(=O)C(F)(F)F)cc2)CC1`, the normalized CellTiter-Glo signal change (more negative = more cytotoxic) was 21.5% (inactive). With `O=C(c1ccc2c(c1)OCO2)N1CCN(c2ccc(C(F)(F)F)cc2)CC1` the normalized CellTiter-Glo signal change (more negative = more cytotoxic) was 1.09% (inactive). For `CN(C)S(=O)(=O)c1ccc(N2CCN(C(=O)c3ccc4c(c3)OCO4)CC2)cc1`, the normalized CellTiter-Glo signal change (more negative = more cytotoxic) was -6.83% (inactive). In the case of `CC(=O)c1ccc(N2CCN(C(=O)c3ccc4c(c3C)OCO4)CC2)cc1`, the normalized CellTiter-Glo signal change (more negative = more cytotoxic) is reported as -3.63% (inactive). In the case of `CC(=O)c1ccc(N2CCN(C(=O)c3ccc4snnc4c3)CC2)cc1`, the normalized CellTiter-Glo signal change (more negative = more cytotoxic) is reported as -3.89% (inactive). In the case of `CC(=O)c1ccc(N2CCN(C(=O)c3cc(Cl)c4c(c3)OCO4)CC2)cc1`, the normalized CellTiter-Glo signal change (more negative = more cytotoxic) is reported as 6.94% (inactive). With `CC(=O)c1ccc(N2CC3CC2CN3C(=O)c2ccc3c(c2)OCO3)cc1` (stereo unspecified) the normalized CellTiter-Glo signal change (more negative = more cytotoxic) was -9.16% (inactive).

— PubChem BioAssay AID743355 (Broad Institute, 2014)
